Test results as given in ChEMBL document CHEMBL4680256, “Indole chalcones: Design, synthesis, in vitro and in silico evaluation against Mycobacterium tuberculosis” (Eur J Med Chem, 2020).
Values after ≈ are worked out from the molar mass of the structure shown.

Tests used:
[1] = test system: Mycobacterium tuberculosis; experiment: Antimycobacterial activity against Mycobacterium tuberculosis H37Rv assessed as reduction in bacterial growth preincubated for 72 hrs followed by phAE202 and Cacl2 addition and measured after 4 hrs by luciferase reporter mycobacterio-phage assay; type: functional; conditions: time 76 hrs
[2] = test system: Mycobacterium tuberculosis; experiment: Antimycobacterial activity against Mycobacterium tuberculosis H37Rv assessed as inhibition of bacterial growth at 100 ug/ml preincubated for 72 hrs followed by phAE202 and Cacl2 addition and measured after 4 hrs by luciferase reporter mycobacterio-phage assay; type: functional; conditions: time 76 hrs
[3] = test system: Mycobacterium tuberculosis; experiment: Antimycobacterial activity against Mycobacterium tuberculosis H37Rv assessed as inhibition of bacterial growth at 50 ug/ml preincubated for 72 hrs followed by phAE202 and Cacl2 addition and measured after 4 hrs by luciferase reporter mycobacterio-phage assay; type: functional; conditions: time 76 hrs
[4] = Cytotoxicity against human Mo7e cells assessed as cell viability at 10 to 50 ug/ml incubated for 24 hrs by WST-1 assay relative to control; type: cell-based, M07E; conditions: at 10 to 50 µg/mL, dose 10-50 µg/ml, read-out: Activity
[5] = Cytotoxicity against mouse BA/F3 cells assessed as cell viability at 10 to 50 ug/ml incubated for 24 hrs by WST-1 assay relative to control; type: cell-based, BaF3; conditions: at 10 to 50 µg/mL, dose 10-50 µg/ml, read-out: Activity

With `COc1ccc(C(=O)/C=C/c2c[nH]c3ccccc23)cc1OC` the MIC [1] was greater than 325 µM, the inhibition at 100 µg/mL [2] was 31.7% and the inhibition at 50 µg/mL [3] was 27.1%.

Compound `Cc1ccc(C(=O)/C=C/c2c[nH]c3ccccc23)cc1` has an MIC [1] greater than 382 µM, an inhibition at 100 µg/mL [2] of 50.9% and an inhibition at 50 µg/mL [3] of 41.7%.

Compound `O=C(/C=C/c1c[nH]c2ccccc12)c1ccc(-n2ccnc2)cc1` has an MIC [1] of 159 µM (≈ 49.8 µg/mL), an inhibition at 100 µg/mL [2] of 70.7% and an inhibition at 50 µg/mL [3] of 63.6%.

Compound `O=C(/C=C/c1c[nH]c2ccccc12)c1ccc(-c2cccs2)cc1` has an MIC [1] of 197 µM (≈ 64.9 µg/mL), an inhibition at 100 µg/mL [2] of 87.2% and an inhibition at 50 µg/mL [3] of 82%. It also gave a viability at 24 h [4] greater than 80% and a viability at 24 h [5] greater than 60%.

`O=C(/C=C/c1c[nH]c2ccccc12)c1ccc(Br)cc1` showed an MIC [1] of 155 µM (≈ 50.6 µg/mL), an inhibition at 100 µg/mL [2] of 65.9% and an inhibition at 50 µg/mL [3] of 64.9%.

`CO[C@H]1/C=C/O[C@@]2(C)Oc3c(C)c(O)c4c(O)c(c(/C=N/N5CCN(C)CC5)c(O)c4c3C2=O)NC(=O)/C(C)=C\C=C\[C@H](C)[C@H](O)[C@@H](C)[C@@H](O)[C@@H](C)[C@H](OC(C)=O)[C@@H]1C` [RIFAMPIN] gave an MIC [1] of 2.4 µM (≈ 1.98 µg/mL) and an inhibition at 100 µg/mL [2] greater than 99%.

With `O=C(/C=C/c1c[nH]c2ccccc12)c1ccc(Cl)cc1` the MIC [1] was greater than 355 µM, the inhibition at 100 µg/mL [2] was 50.6% and the inhibition at 50 µg/mL [3] was 48.6%.

In the case of `O=C(/C=C/c1c[nH]c2ccccc12)c1ccccn1`, the MIC [1] is reported as 201 µM (≈ 49.9 µg/mL), the inhibition at 100 µg/mL [2] is reported as 62% and the inhibition at 50 µg/mL [3] is reported as 53.1%.

Compound `O=C(/C=C/c1c[nH]c2ccccc12)c1ccc2ccccc2c1` has an MIC [1] greater than 336 µM, an inhibition at 100 µg/mL [2] of 41.8% and an inhibition at 50 µg/mL [3] of 30.8%.

In the case of `O=C(/C=C/c1c[nH]c2ccccc12)c1ccc(C(F)(F)F)cc1`, the MIC [1] is reported as greater than 317 µM, the inhibition at 100 µg/mL [2] is reported as 31.2% and the inhibition at 50 µg/mL [3] is reported as 29.7%.

For `O=C1CCCC/C1=C\c1cc2ccccc2[nH]1`, the MIC [1] was 221 µM (≈ 49.8 µg/mL), the inhibition at 100 µg/mL [2] was 62% and the inhibition at 50 µg/mL [3] was 53.1%.

For `O=C(/C=C/c1c[nH]c2ccccc12)c1ccc(-c2ccoc2)cc1`, the MIC [1] was 210 µM (≈ 65.8 µg/mL), the inhibition at 100 µg/mL [2] was 87.7% and the inhibition at 50 µg/mL [3] was 85.3%. The viability at 24 h [4] was greater than 80% and the viability at 24 h [5] was greater than 60%.

In the case of `O=C(/C=C/c1c[nH]c2ccccc12)c1ccc2c(c1)OCO2`, the MIC [1] is reported as 171 µM (≈ 49.8 µg/mL), the inhibition at 100 µg/mL [2] is reported as 75.7% and the inhibition at 50 µg/mL [3] is reported as 66.8%.

Compound `O=C(/C=C/c1c[nH]c2ccccc12)c1ccc(-c2ccc[nH]2)cc1` has an MIC [1] greater than 423 µM, an inhibition at 100 µg/mL [2] of 49.4% and an inhibition at 50 µg/mL [3] of 26.4%.

In the case of `NNC(=O)c1ccncc1` [ISONIAZID], the MIC [1] is reported as 1.4 µM (≈ 0.192 µg/mL) and the inhibition at 100 µg/mL [2] is reported as greater than 99%.

For `COc1cccc(C(=O)/C=C/c2c[nH]c3ccccc23)c1`, the MIC [1] was greater than 360 µM, the inhibition at 100 µg/mL [2] was 36.7% and the inhibition at 50 µg/mL [3] was 27.1%.

With `O=C(/C=C/c1c[nH]c2ccccc12)c1cccc([N+](=O)[O-])c1` the MIC [1] was greater than 342 µM, the inhibition at 100 µg/mL [2] was 51.7% and the inhibition at 50 µg/mL [3] was 48.7%.

In the case of `O=C(/C=C/c1c[nH]c2ccccc12)c1cccnc1`, the MIC [1] is reported as 201 µM (≈ 49.9 µg/mL), the inhibition at 100 µg/mL [2] is reported as 70.7% and the inhibition at 50 µg/mL [3] is reported as 63.1%.

In the case of `O=C(/C=C/c1c[nH]c2ccccc12)N1CCN(c2ccc(O)cc2)CC1`, the MIC [1] is reported as 143 µM (≈ 49.7 µg/mL), the inhibition at 100 µg/mL [2] is reported as 76.4% and the inhibition at 50 µg/mL [3] is reported as 63.8%.

Compound `O=C(/C=C/c1c[nH]c2ccccc12)c1ccc(Cl)cc1Cl` has an MIC [1] of 164 µM (≈ 51.9 µg/mL), an inhibition at 100 µg/mL [2] of 55.2% and an inhibition at 50 µg/mL [3] of 52.3%.

Compound `O=C(/C=C/c1c[nH]c2ccccc12)c1ccc(O)cc1` has an MIC [1] of 189 µM (≈ 49.8 µg/mL), an inhibition at 100 µg/mL [2] of 55.1% and an inhibition at 50 µg/mL [3] of 54.9%.

Work on `O=C(/C=C/c1c[nH]c2ccccc12)c1cccc(C(F)(F)F)c1` yielded an MIC [1] greater than 317 µM, an inhibition at 100 µg/mL [2] of 26.3% and an inhibition at 50 µg/mL [3] of 24.5%.

For `Nc1cccc(C(=O)/C=C/c2c[nH]c3ccccc23)c1`, the MIC [1] was greater than 381 µM, the inhibition at 100 µg/mL [2] was 48.7% and the inhibition at 50 µg/mL [3] was 37.2%.

`O=C(/C=C/c1c[nH]c2ccccc12)c1ccc(-c2ccsc2)cc1` gave an MIC [1] of 197 µM (≈ 64.9 µg/mL), an inhibition at 100 µg/mL [2] of 63.4% and an inhibition at 50 µg/mL [3] of 62%.

`O=C(/C=C/c1c[nH]c2ccccc12)c1ccc(F)cc1` showed an MIC [1] of 188 µM (≈ 49.9 µg/mL), an inhibition at 100 µg/mL [2] of 54.2% and an inhibition at 50 µg/mL [3] of 50.3%.

For `O=C(/C=C/c1c[nH]c2ccccc12)c1ccncc1`, the MIC [1] was 201 µM (≈ 49.9 µg/mL), the inhibition at 100 µg/mL [2] was 64.2% and the inhibition at 50 µg/mL [3] was 58.4%.

For `O=C1CCC/C1=C\c1cc2ccccc2[nH]1`, the MIC [1] was 236 µM (≈ 49.9 µg/mL), the inhibition at 100 µg/mL [2] was 86.3% and the inhibition at 50 µg/mL [3] was 84.3%. It also gave a viability at 24 h [4] greater than 80% and a viability at 24 h [5] greater than 60%.
